Results from US5859029A, “Heterocyclic compounds method of preparing them and pharmeutical compositions in which they are present” (Sanofi, priority 1995, dated 1999).
Structures can show the parent of a compound that is named as a salt.

What follows are molecules tested against T1, NK1 receptors of IM9 human lymphoblasts (Homo sapiens, UniProt P25103) (assay: Binding of [^125 I]BH-SP (substance P) to the NK1 receptors of human lymphoblasts). Settings: read-out: inhibition constant Ki (binding of substance P to the human lymphoblast NK1 receptor).
T1 construct: NK1 receptors of IM9 human lymphoblasts; endogenous in cells; host or cells: IM9 human lymphoblasts
T1 sequence (P25103 whole entry): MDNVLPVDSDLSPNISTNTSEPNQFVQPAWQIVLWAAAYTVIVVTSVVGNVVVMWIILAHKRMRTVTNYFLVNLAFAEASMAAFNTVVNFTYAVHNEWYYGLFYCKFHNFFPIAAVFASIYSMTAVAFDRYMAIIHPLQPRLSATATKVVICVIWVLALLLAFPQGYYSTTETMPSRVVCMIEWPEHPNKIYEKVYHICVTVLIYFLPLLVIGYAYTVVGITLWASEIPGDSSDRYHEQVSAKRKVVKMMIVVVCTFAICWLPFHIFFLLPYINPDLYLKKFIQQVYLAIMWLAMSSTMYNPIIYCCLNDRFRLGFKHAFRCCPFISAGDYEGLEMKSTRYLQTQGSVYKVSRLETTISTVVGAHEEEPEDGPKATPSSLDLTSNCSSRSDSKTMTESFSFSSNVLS
Protocol: In ligand binding studies, the inhibition constant Ki is defined by the Cheng-Prusoff relationship (in Receptor Binding in Drug Research, eds. R. A. O'Brien, Marcel Dekker, New York, 1986): [formula] [L]: concentration of the ligand, Kd: dissociation constant of the ligand,
IC50 : concentration which inhibits the ligand binding by 50%.
The affinity of the compounds of formula (I) for the tachykinin receptors was evaluated in vitro by several biochemical tests using radioligands:
1°) The binding of [^125 I]BH-SP (substance P labeled with iodine-125 using Bolton-Hunter's reagent) to the NK1 receptors of human lymphoblasts.
The tests were performed according to X. Emonds-Alt et al. (Eur. J. Pharmacol., 1993, 2, 403-413).

| SMILES | Ki [nM] |
| --- | --- |
| O=C1CCC(CCN2CCC(Cc3ccccc3)CC2)(c2ccc(Cl)c(Cl)c2)CN1Cc1ccccc1 (stereo not shown) [5-[2-(4-benzyl-1-piperid-1-yl)ethyl]-5-(3,4-dichlorophenyl)-1-benzylpiperid-2-one hydrochloride] | ~1000 |
| O=C1CC(CCN2CCC(O)(c3ccccc3)CC2)(c2ccc(Cl)c(Cl)c2)CN1Cc1cc(C(F)(F)F)cc(C(F)(F)F)c1 (stereo not shown) [Example 10, 4-(3,4-Dichlorophenyl)-4-[2-(4-hydroxy-4-phenylpiperid-1-yl)ethyl]-1-[3,5-bis(trifluoromethyl)benzyl]pyrrolidin-2-one hydrochloride] | ~0.1 |
| C[N+]1(CCC2(c3ccc(Cl)c(Cl)c3)CCC(=O)N(Cc3cc(C(F)(F)F)cc(C(F)(F)F)c3)C2)CCC(c2ccccc2)CC1 (stereo not shown) [Example 7, 1-Methyl-1-[2-[1-[3,5-bis(trifluoromethyl)benzyl]-5-(3,4-dichlorophenyl)-2-oxopiperid-5-yl]-ethyl]-4-phenylpiperidinium iodide] | ~0.1 |
| O=C1CC(CCN2CCC(O)(c3ccccc3)CC2)(c2ccc(Cl)c(Cl)c2)CCN1Cc1ccccc1 (stereo not shown) [1-benzyl-4-(3,4-dichlorophenyl)-4-[2-(4-hydroxy-4-phenylpiperid-1-yl)ethyl]piperid-2-one hydrochloride] | ~1000 |
